Assay results taken from patent US20230085307A1, “PYRIDAZINONE COMPOUND AND HERBICIDE” (NISSAN CHEMICAL CORPORATION, priority 2019, published 2023).

How the values were obtained:
southern crabgrass = test: Test Example 5: herbicidal effect by foliage application, plastic box (Table 20, symbol F); type: in vivo, southern crabgrass (Digitaria ciliaris); conditions: foliage application, three weeks after application
In short: (§1)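 Foliar spray test: emulsion formulation diluted in water to a set application rate, sprayed onto 14-day-old plants raised in diluvial soil at 25° C to 30° C under glass. Both herbicidal effect and crop effect rated visually three weeks later.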

Japanese bulrush [1] = test: Test Example 1: herbicidal activity, application before weed generation under submerged conditions (Table 16, symbol B); type: in vivo, Japanese bulrush (Schoenoplectus juncoides)
In short: (§2)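 Submerged Wagner pots (alluvial soil, 4 cm water) sown with weed seeds and planted with 2.5-leaf rice seedlings; emulsifiable concentrate diluted in water applied to water surface on sowing day. Held in greenhouse at 25-30 °C; injury scored 0-5 by herbicidal rate after three weeks.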

oval-leafed pondweed [2] = test: Test Example 1: herbicidal activity, application before weed generation under submerged conditions (Table 16, symbol C); type: in vivo, oval-leafed pondweed (Monochoria vaginalis)
In short: as §2

redroot pigweed = test: Test Example 5: herbicidal effect by foliage application, plastic box (Table 20, symbol N); type: in vivo, redroot pigweed (Amaranthus retroflexus); conditions: foliage application, three weeks after application
In short: as §1

blackgrass = test: Test Example 5: herbicidal effect by foliage application, plastic box (Table 20, symbol J); type: in vivo, blackgrass (Alopecurus myosuroides); conditions: foliage application, three weeks after application
In short: as §1

wild oat = test: Test Example 5: herbicidal effect by foliage application, plastic box (Table 20, symbol I); type: in vivo, wild oat (Avena fatua); conditions: foliage application, three weeks after application
In short: as §1

windgrass = test: Test Example 5: herbicidal effect by foliage application, plastic box (Table 20, symbol L); type: in vivo, windgrass (Apera spica-venti); conditions: foliage application, three weeks after application
In short: as §1

oval-leafed pondweed [3] = test: Test Example 2: herbicidal activity, application during weed generation under submerged conditions (Table 17, symbol C); type: in vivo, oval-leafed pondweed (Monochoria vaginalis); conditions: AAH 320 g/ha; application during weed generation, submerged conditions
In short: (§3)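 Effect on each weed is rated three weeks post-treatment, using the same scoring criteria as the preceding test. Plants grow from mixed-sown seed in flooded alluvial soil (4 cm water) at 25° C. to 30° C., and are treated at one to two leaves with diluted emulsion dropped onto the water.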

persian speedwell = test: Test Example 5: herbicidal effect by foliage application, plastic box (Table 20, symbol R); type: in vivo, Persian speedwell (Veronica persica); conditions: foliage application, three weeks after application
In short: as §1

Italian ryegrass = test: Test Example 5: herbicidal effect by foliage application, plastic box (Table 20, symbol K); type: in vivo, Italian ryegrass (Lolium multiflorum); conditions: foliage application, three weeks after application
In short: as §1

lambsquarters = test: Test Example 5: herbicidal effect by foliage application, plastic box (Table 20, symbol O); type: in vivo, lambsquarters (Chenopodium album); conditions: foliage application, three weeks after application
In short: as §1

Chinese sprangletop = test: Test Example 3: herbicidal effect by foliage application, Wagner pot (Table 18, symbol D); type: in vivo, chinese sprangletop (Leptochloa chinensis)
In short: (§4)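 Plants were sown in alluvial soil held under 0.1–0.5 cm standing water and grown 14 days in a greenhouse at 25–30 °C. An emulsifiable formulation, water-diluted to the set dose, was then sprayed onto the foliage, and effects were scored three weeks later using previously defined criteria.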

barnyard grass [4] = test: Test Example 5: herbicidal effect by foliage application, plastic box (Table 20, symbol H); type: in vivo, barnyard grass (Echinochloa crus-galli); conditions: foliage application, three weeks after application
In short: as §1

Japanese bulrush [5] = test: Test Example 2: herbicidal activity, application during weed generation under submerged conditions (Table 17, symbol B); type: in vivo, Japanese bulrush (Schoenoplectus juncoides); conditions: AAH 320 g/ha; application during weed generation, submerged conditions
In short: as §3

chickweed = test: Test Example 5: herbicidal effect by foliage application, plastic box (Table 20, symbol P); type: in vivo, common chickweed (Stellaria media); conditions: foliage application, three weeks after application
In short: as §1

late watergrass [6] = test: Test Example 1: herbicidal activity, application before weed generation under submerged conditions (Table 16, symbol A); type: in vivo, late watergrass (Echinochloa oryzicola)
In short: as §2

green foxtail = test: Test Example 5: herbicidal effect by foliage application, plastic box (Table 20, symbol G); type: in vivo, green foxtail (Setaria viridis); conditions: foliage application, three weeks after application
In short: as §1

velvetleaf = test: Test Example 5: herbicidal effect by foliage application, plastic box (Table 20, symbol M); type: in vivo, velvetleaf (Abutilon theophrasti); conditions: foliage application, three weeks after application
In short: as §1

barnyard grass [7] = test: Test Example 3: herbicidal effect by foliage application, Wagner pot (Table 18, symbol H); type: in vivo, barnyard grass (Echinochloa crus-galli)
In short: as §4

late watergrass [8] = test: Test Example 2: herbicidal activity, application during weed generation under submerged conditions (Table 17, symbol A); type: in vivo, late watergrass (Echinochloa oryzicola); conditions: AAH 320 g/ha; application during weed generation, submerged conditions
In short: as §3

rice flat sedge = test: Test Example 3: herbicidal effect by foliage application, Wagner pot (Table 18, symbol E); type: in vivo, rice flat sedge (Cyperus iria)
In short: as §4

[9] = amount of applied herbicide 320 g/ha

With `CCCC(=O)Oc1c(C)nn(C)c(=O)c1-c1c(-c2ccc([Si](C)(C)C)cc2)sc2ccccc12` [1-154] the “F: southern crabgrass, herbicidal effect” value (southern crabgrass; AAH 320 g/ha) was 0 (Herbicidal rate of 5% or less (almost no effect)), the “Herbicidal effect on B: Japanese bulrush (grade 0-5)” value (Japanese bulrush [1]; 320 g/ha applied herbicide) was 0 (Herbicidal rate of 5% or less (almost no effect)) and the “Herbicidal effect on C: oval-leafed pondweed (grade 0-5)” value (oval-leafed pondweed [2]; 320 g/ha applied herbicide) was 0 (Herbicidal rate of 5% or less (almost no effect)). The “N: redroot pigweed, herbicidal effect” value (redroot pigweed; AAH 320 g/ha) was 3 (Herbicidal rate of 40% or more and less than 70%), the “J: blackgrass, herbicidal effect” value (blackgrass; AAH 320 g/ha) was 0 (Herbicidal rate of 5% or less (almost no effect)) and the “I: wild oat, herbicidal effect” value (wild oat; AAH 320 g/ha) was 0 (Herbicidal rate of 5% or less (almost no effect)). For the same molecule, the “L: windgrass, herbicidal effect” value (windgrass; AAH 320 g/ha) was 0 (Herbicidal rate of 5% or less (almost no effect)), the “herbicidal effect rating, C: oval-leafed pondweed” value (oval-leafed pondweed [3]) was 0 (Herbicidal rate of 5% or less (almost no effect)) and the “R: persian speedwell, herbicidal effect” value (persian speedwell; AAH 320 g/ha) was 4 (Herbicidal rate of 70% or more and less than 90%). For the same molecule, the “K: Italian ryegrass, herbicidal effect” value (Italian ryegrass; AAH 320 g/ha) was 0 (Herbicidal rate of 5% or less (almost no effect)), the “O: lambsquarters, herbicidal effect” value (lambsquarters; AAH 320 g/ha) was 4 (Herbicidal rate of 70% or more and less than 90%) and the “herbicidal effect on D (Chinese sprangletop), rating 0-5” value (Chinese sprangletop; 320 g/ha) was 3 (Herbicidal rate of 40% or more and less than 70%). For the same molecule, the “H: barnyard grass, herbicidal effect” value (barnyard grass [4]; AAH 320 g/ha) was 0 (Herbicidal rate of 5% or less (almost no effect)), the “herbicidal effect rating, B: Japanese bulrush” value (Japanese bulrush [5]) was 2 (Herbicidal rate of 20% or more and less than 40%) and the “P: chickweed, herbicidal effect” value (chickweed; AAH 320 g/ha) was 0 (Herbicidal rate of 5% or less (almost no effect)). The “Herbicidal effect on A: late watergrass (grade 0-5)” value (late watergrass [6]; 320 g/ha applied herbicide) was 2 (Herbicidal rate of 20% or more and less than 40%), the “G: green foxtail, herbicidal effect” value (green foxtail; AAH 320 g/ha) was 0 (Herbicidal rate of 5% or less (almost no effect)) and the “M: velvetleaf, herbicidal effect” value (velvetleaf; AAH 320 g/ha) was 0 (Herbicidal rate of 5% or less (almost no effect)). For the same molecule, the “herbicidal effect on H (barnyard grass), rating 0-5” value (barnyard grass [7]; 320 g/ha) was 2 (Herbicidal rate of 20% or more and less than 40%), the “herbicidal effect rating, A: late watergrass” value (late watergrass [8]) was 0 (Herbicidal rate of 5% or less (almost no effect)) and the “herbicidal effect on E (rice flat sedge), rating 0-5” value (rice flat sedge; 320 g/ha) was 2 (Herbicidal rate of 20% or more and less than 40%).
`CCCOc1ccc(-c2sc3ccc(F)cc3c2-c2c(O)c(CC)nn(C)c2=O)cc1` [2-418] was tested, and the “F: southern crabgrass, herbicidal effect grade” value (southern crabgrass; 320 g/ha) was 2 (Herbicidal rate of 20% or more and less than 40%), the “Herbicidal effect, B: Japanese bulrush” value (Japanese bulrush [1]; [9]) was 4 (Herbicidal rate of 70% or more and less than 90%) and the “Herbicidal effect, C: oval-leafed pondweed” value (oval-leafed pondweed [2]; [9]) was 2 (Herbicidal rate of 20% or more and less than 40%). The “N: redroot pigweed, herbicidal effect grade” value (redroot pigweed; 320 g/ha) was 5 (Herbicidal rate of 90% or more (almost completely withered)), the “J: blackgrass, herbicidal effect grade” value (blackgrass; 320 g/ha) was 4 (Herbicidal rate of 70% or more and less than 90%) and the “I: wild oat, herbicidal effect grade” value (wild oat; 320 g/ha) was 0 (Herbicidal rate of 5% or less (almost no effect)). The “L: windgrass, herbicidal effect grade” value (windgrass; 320 g/ha) was 4 (Herbicidal rate of 70% or more and less than 90%), the “herbicidal effect rating, C: oval-leafed pondweed” value (oval-leafed pondweed [3]) was 0 (Herbicidal rate of 5% or less (almost no effect)) and the “R: persian speedwell, herbicidal effect grade” value (persian speedwell; 320 g/ha) was 5 (Herbicidal rate of 90% or more (almost completely withered)). The “K: Italian ryegrass, herbicidal effect grade” value (Italian ryegrass; 320 g/ha) was 4 (Herbicidal rate of 70% or more and less than 90%), the “O: lambsquarters, herbicidal effect grade” value (lambsquarters; 320 g/ha) was 5 (Herbicidal rate of 90% or more (almost completely withered)) and the “herbicidal effect on D: Chinese sprangletop” value (Chinese sprangletop; [9]) was 3 (Herbicidal rate of 40% or more and less than 70%). For the same molecule, the “H: barnyard grass, herbicidal effect grade” value (barnyard grass [4]; 320 g/ha) was 4 (Herbicidal rate of 70% or more and less than 90%), the “herbicidal effect rating, B: Japanese bulrush” value (Japanese bulrush [5]) was 3 (Herbicidal rate of 40% or more and less than 70%) and the “P: chickweed, herbicidal effect grade” value (chickweed; 320 g/ha) was 5 (Herbicidal rate of 90% or more (almost completely withered)). The “Herbicidal effect, A: late watergrass” value (late watergrass [6]; [9]) was 4 (Herbicidal rate of 70% or more and less than 90%), the “G: green foxtail, herbicidal effect grade” value (green foxtail; 320 g/ha) was 3 (Herbicidal rate of 40% or more and less than 70%) and the “M: velvetleaf, herbicidal effect grade” value (velvetleaf; 320 g/ha) was 5 (Herbicidal rate of 90% or more (almost completely withered)). The “herbicidal effect on H: barnyard grass” value (barnyard grass [7]; [9]) was 5 (Herbicidal rate of 90% or more (almost completely withered)), the “herbicidal effect rating, A: late watergrass” value (late watergrass [8]) was 2 (Herbicidal rate of 20% or more and less than 40%) and the “herbicidal effect on E: rice flat sedge” value (rice flat sedge; [9]) was 5 (Herbicidal rate of 90% or more (almost completely withered)).
